Source: patent US20060099712A1, “Correlation of anti-cancer activity of dyes with redox potentials” (Eastman Kodak Company, priority 2004, published 2006)
≈ marks a conversion by molar mass, not a printed value. Where “and” joins values, the source holds several entries; their conditions need not be identical. Equal values may be shown once. Read-outs that look alike come from different tables or passages of the source.

Assays:
Format in all cases: cell-based
[1] = tested on: CCL 185 Human Lung Carcinoma; test: Initial in vitro screening, lung carcinoma cells; details: for Selectivity: IC50 CV-1 / IC50 cell line 6 (lung carcinoma); for IC50: read-out: IC50 (concentration at which 50% of the cells of the culture are killed)
Source text: (§1) Other publications have shown that some cyanine dyes show anti-cancer activity. See I. Minami, Y. Kozai, H. Nomura and T. Tashiro, Chem. Phar. Bull. 30:3106 (1982); W. M. Anderson, D. L. Delinick, L. Benninger, J. M. Wood, S. T. Smiley and L. B. Chen, Biochemical Pharmacology, 45:691 (1993). […] (See L. G. S. Brooker, L. A. Sweet, Science, 105, (1947) and I. Minami, Y. Kozai, H. Nomura, T. Tashiro, Chem. Pharm. Bull., 30,3106 (1982) on chemotherapeutic investigations of cyanine dyes.) Table I lists initial in vitro screening results in various cell lines and a comparison with Adriamycin, which is a widely used chemotherapeutic agent.
(§2) Description of Cell Line • 1. CV-1 Normal Monkey Kidney Epithelial (control) • 2. CX-1 Human Colon Carcinoma • 3. Human Breast Carcinoma • 4. Human Pancreatic Carcinoma • 5. Human Bladder Carcinoma • 6. Human Lung Carcinoma • 7. Human Squamous Cell Carcinoma • 8. Human Adrenal Cortex Carcinoma

[2] = tested on: CCL 105 Human Adrenal Cortex Carcinoma; test: Initial in vitro screening, adrenal cortex carcinoma cells; details: for Selectivity: IC50 CV-1 / IC50 cell line 8 (adrenal cortex carcinoma); for IC50: read-out: IC50 (concentration at which 50% of the cells of the culture are killed)
Source text: as §1, §2

[3] = tested on: CX-1 Human Colon Carcinoma; test: Clonogenic dye screening assay, CX-1 cells (IC50); parameters: CX: unit not given here; details: for Selectivity: IC50 CV-1 / IC50 cell line 2 (CX-1); for IC50: Homo sapiens; for CX (IC50 in the CX-1 cell line): 3 hrs treatment, unit from method b117-118; for CV/CX: selectivity ratio of IC50 values; for CV/CX (selectivity, kill ratio): ratio of IC50 in normal CV-1 line to IC50 in carcinoma CX-1 line
Procedure, shortened: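 Cells seeded 16-30 h ahead (2000 CX-1 or 1000 CV-1 per well), exposed to serially diluted dyes for 3 h at 37 °C, rinsed three times, then grown into colonies. Eight-point curves spanned 0.32-0.0015 μg/mL (CX-1) and 3.2-0.025 μg/mL (CV-1). IC50 is the concentration killing 50% of cells.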

[4] = cell line 6, CCL 185 human lung carcinoma, unit from method
[5] = cell line 8, CCL 105 human adrenal cortex carcinoma, unit from method
[6] = CX-1, cell line 2, CX-1, unit from method, read-out: IC50 (concentration at which 50% of the cells of the culture are killed)
[7] = CX-1, Table XIX, CX-1 cells, read-out: CX

| SMILES | CX (IC50 in the CX-1 cell line) ([3]; colonies after 7-10 days) [µg/mL] | IC50 [3, 7] [µg/mL] | IC50 ([3]; CX-1, 3 hrs treatment, colonies after 7-10 days, unit from method, read-out: CX (IC50 in the CX-1 cell line)) [µg/mL] | Selectivity [1] | IC50 (concentration at which 50% of the cells of the culture are killed) [1, 4] | Selectivity [2] | IC50 (concentration at which 50% of the cells of the culture are killed) [2, 5] | Selectivity [3] | IC50 (concentration at which 50% of the cells of the culture are killed) ([3]; cell line 2, CX-1, unit from method) | IC50 [1, 4] [µg/mL] | IC50 [2, 5] [µg/mL] | IC50 [3, 6] [µg/mL] | CX ([3]; Table XIX, CX-1 cells) | CV/CX ([3]; Table XIX) | CV/CX ([3]; Table XV) | CV/CX (selectivity, kill ratio) [3] | IC50 ([3]; CX-1, read-out: CX) [µg/mL] | IC50 ([3]; CX-1, read-out: CX (IC50 in the CX-1 cell line)) [µg/mL] |
| --- | --- | --- | --- | --- | --- | --- | --- | --- | --- | --- | --- | --- | --- | --- | --- | --- | --- | --- |
| CCN1C(=CC=Cc2sc3cc4ccccc4cc3[n+]2CC)Sc2cc3ccccc3cc21 [AC-2] |  |  |  | >60 | <.005 µg/mL | >60 | <.005 µg/mL | >60 | <.005 µg/mL |  |  |  |  |  |  |  |  |  |
| COc1cccc2c1C(=O)c1c(O)c3c(c(O)c1C2=O)C[C@@](O)(C(=O)CO)C[C@@H]3O[C@H]1C[C@H](N)[C@H](O)[C@H](C)O1 [Adriamycin, reference compound] |  |  |  | 11 |  | 16 |  | 1.5 |  | 0.07 (≈ 0.129 µM) | 0.05 (≈ 0.092 µM) | 0.55 (≈ 1.01 µM) |  |  |  |  |  |  |
| CCN1/C(=C/C=C/c2sc3ccccc3[n+]2CC)Sc2ccccc21.[I-] [Dye D-101] | <0.005 |  |  | 50 |  | >100 |  | 100 |  |  |  |  | 0.004 | 100.000 and 75.000 | 100.0 | 100 and >100.0 |  |  |
| CCN1/C(=C\C=C\C2=[N+](CC)c3ccccc3C2(C)C)C(C)(C)c2ccccc21 [Dye D-103] |  |  |  |  |  |  |  |  |  |  |  |  |  | 500.000 | 500.0 | 500 | 0.01 | 0.01 |

The next lines start with results.

| CX (IC50 in the CX-1 cell line) ([3]; colonies after 7-10 days) [µg/mL] | IC50 [3, 7] [µg/mL] | IC50 ([3]; CX-1, 3 hrs treatment, colonies after 7-10 days, unit from method, read-out: CX (IC50 in the CX-1 cell line)) [µg/mL] | SMILES | Selectivity [1] | IC50 (concentration at which 50% of the cells of the culture are killed) [1, 4] | Selectivity [2] | IC50 (concentration at which 50% of the cells of the culture are killed) [2, 5] | Selectivity [3] | IC50 (concentration at which 50% of the cells of the culture are killed) ([3]; cell line 2, CX-1, unit from method) | IC50 [1, 4] [µg/mL] | IC50 [2, 5] [µg/mL] | IC50 [3, 6] [µg/mL] | CX ([3]; Table XIX, CX-1 cells) | CV/CX ([3]; Table XIX) | CV/CX ([3]; Table XV) | CV/CX (selectivity, kill ratio) [3] | IC50 ([3]; CX-1, read-out: CX) [µg/mL] | IC50 ([3]; CX-1, read-out: CX (IC50 in the CX-1 cell line)) [µg/mL] |
| --- | --- | --- | --- | --- | --- | --- | --- | --- | --- | --- | --- | --- | --- | --- | --- | --- | --- | --- |
| <0.005 | 0.004 |  | CCN1/C(=C/C=C/c2sc3cc4ccccc4cc3[n+]2CC)Sc2cc3ccccc3cc21 [Dye D-109] |  |  |  |  |  |  |  |  |  |  | 75.000 |  | 60 and >60.0 |  |  |
|  | 0.03 | 0.03 | CCN1C(=CC=Cc2sc3cc4ccccc4nc3[n+]2CC)Sc2cc3ccccc3nc21 [Dye D-150] | 150 |  | 300 |  | 100 |  | 0.02 | 0.01 | 0.03 |  | 100.000 |  | 100 |  |  |
| 0.05 |  |  | CCN1/C(=C/C=C/c2sc3cc4ccccc4cc3[n+]2CC)Sc2cc3ccccc3cc21 [Dye D-160] |  |  |  |  |  |  | < 0.005 | < 0.005 | < 0.005 | 0.004 | 75.000 |  | 100 |  |  |
